Assay results published in patent US10301304B2, “Selective inhibitor of phosphatidylinositol 3-kinase-gamma” (VERTEX PHARMACEUTICALS INCORPORATED, priority 2013, dated 2019).
Like-named read-outs stand apart in the source and are kept apart here. Marks after values point to notes of the source that are not given here.

Tests used:
CYP1A2 [1] = biological target: CYP1A2 (Homo sapiens, UniProt P05177); assay: Inhibition of CYP Enzymes in Human Liver Microsomes; type: in vitro ADME; design: from tissue; host or cells: human liver microsomes; conditions: CYP1A2, 30 μM Phenacetin
Sequence of CYP1A2 (Homo sapiens, UniProt P05177) (P05177 whole entry): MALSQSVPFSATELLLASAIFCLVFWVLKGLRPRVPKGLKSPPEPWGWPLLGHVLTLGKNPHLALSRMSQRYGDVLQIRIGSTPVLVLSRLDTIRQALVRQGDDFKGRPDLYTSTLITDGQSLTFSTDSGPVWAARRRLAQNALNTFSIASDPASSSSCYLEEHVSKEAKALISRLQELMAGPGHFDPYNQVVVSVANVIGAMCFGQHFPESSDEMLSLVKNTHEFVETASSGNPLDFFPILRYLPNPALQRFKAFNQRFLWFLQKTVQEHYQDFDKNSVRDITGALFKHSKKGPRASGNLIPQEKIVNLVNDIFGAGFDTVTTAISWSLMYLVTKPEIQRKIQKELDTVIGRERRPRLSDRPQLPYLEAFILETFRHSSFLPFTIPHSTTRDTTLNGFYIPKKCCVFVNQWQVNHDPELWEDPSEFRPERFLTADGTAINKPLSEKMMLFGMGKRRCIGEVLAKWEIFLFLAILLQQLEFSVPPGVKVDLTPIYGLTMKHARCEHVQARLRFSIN
Procedure: (§1) Inhibition assays were conducted with selective CYP probes for each CYP enzyme at specific concentrations of substrate (close to its dissociation constant (Km) value). Compound 1 was a moderate inhibitor of CYP 1A2, 2B6 and 2C8; […]

CYP2C9 = CYP2C9 (Homo sapiens, UniProt P11712); assay: as above; type: in vitro ADME; design: from tissue; host or cells: human liver microsomes; conditions: CYP2C9, 2.5 μM Diclofenac
Sequence of CYP2C9 (P11712 whole entry): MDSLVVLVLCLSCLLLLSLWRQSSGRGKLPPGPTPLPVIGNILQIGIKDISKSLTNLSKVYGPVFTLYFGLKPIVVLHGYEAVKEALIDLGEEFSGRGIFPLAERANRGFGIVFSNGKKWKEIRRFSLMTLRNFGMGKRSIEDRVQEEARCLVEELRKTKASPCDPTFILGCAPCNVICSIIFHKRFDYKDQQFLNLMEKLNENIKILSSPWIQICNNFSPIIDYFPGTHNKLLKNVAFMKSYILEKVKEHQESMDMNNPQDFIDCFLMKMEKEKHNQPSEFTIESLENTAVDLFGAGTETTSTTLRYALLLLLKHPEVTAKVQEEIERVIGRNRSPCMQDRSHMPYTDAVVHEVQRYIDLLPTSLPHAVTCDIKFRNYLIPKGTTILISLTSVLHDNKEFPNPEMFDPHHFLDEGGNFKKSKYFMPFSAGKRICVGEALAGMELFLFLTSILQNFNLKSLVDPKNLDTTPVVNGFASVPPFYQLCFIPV
Procedure: as §1

CYP2C19 = CYP2C19 (Homo sapiens, UniProt P33261); assay: as above; type: in vitro ADME; design: from tissue; host or cells: human liver microsomes; conditions: CYP2C19, 30 μM S-Mephenytoin
Sequence of CYP2C19 (P33261 whole entry): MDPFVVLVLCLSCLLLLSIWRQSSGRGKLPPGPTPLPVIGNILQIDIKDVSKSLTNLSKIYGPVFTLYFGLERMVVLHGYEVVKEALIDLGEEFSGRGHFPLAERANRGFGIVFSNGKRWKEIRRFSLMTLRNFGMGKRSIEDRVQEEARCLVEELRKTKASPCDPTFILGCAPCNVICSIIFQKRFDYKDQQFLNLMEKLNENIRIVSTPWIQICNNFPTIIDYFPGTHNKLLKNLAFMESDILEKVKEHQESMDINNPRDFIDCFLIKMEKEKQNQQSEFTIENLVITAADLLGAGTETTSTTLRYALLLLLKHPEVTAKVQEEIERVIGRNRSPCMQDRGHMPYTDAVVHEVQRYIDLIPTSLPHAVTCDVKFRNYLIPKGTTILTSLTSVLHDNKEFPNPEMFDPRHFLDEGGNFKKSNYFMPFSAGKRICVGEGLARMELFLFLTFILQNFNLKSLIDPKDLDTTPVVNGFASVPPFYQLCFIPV
Procedure: as §1

CYP2D6 = CYP2D6 (Homo sapiens, UniProt P10635); assay: as above; type: in vitro ADME; design: from tissue; host or cells: human liver microsomes; conditions: CYP2D6, 10 μM Bufuralol
Sequence of CYP2D6 (P10635 whole entry): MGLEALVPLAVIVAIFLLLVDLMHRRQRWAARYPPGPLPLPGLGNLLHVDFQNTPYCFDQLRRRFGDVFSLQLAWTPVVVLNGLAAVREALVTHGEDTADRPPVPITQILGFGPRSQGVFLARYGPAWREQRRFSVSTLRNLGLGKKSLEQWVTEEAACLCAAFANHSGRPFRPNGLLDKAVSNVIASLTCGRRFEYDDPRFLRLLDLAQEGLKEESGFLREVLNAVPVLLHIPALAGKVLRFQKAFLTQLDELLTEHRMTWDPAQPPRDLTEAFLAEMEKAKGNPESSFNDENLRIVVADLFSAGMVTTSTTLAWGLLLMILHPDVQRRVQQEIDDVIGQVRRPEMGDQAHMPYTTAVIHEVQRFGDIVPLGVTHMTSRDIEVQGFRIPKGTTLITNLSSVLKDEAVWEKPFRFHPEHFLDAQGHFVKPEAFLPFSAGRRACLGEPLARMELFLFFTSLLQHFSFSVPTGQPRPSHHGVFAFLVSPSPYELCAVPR
Procedure: as §1

CYP2B6 = CYP2B6 (Homo sapiens, UniProt P20813); assay: as above; type: in vitro ADME; design: from tissue; host or cells: human liver microsomes; conditions: CYP2B6, 100 μM Bupropion
Sequence of CYP2B6 (P20813 whole entry): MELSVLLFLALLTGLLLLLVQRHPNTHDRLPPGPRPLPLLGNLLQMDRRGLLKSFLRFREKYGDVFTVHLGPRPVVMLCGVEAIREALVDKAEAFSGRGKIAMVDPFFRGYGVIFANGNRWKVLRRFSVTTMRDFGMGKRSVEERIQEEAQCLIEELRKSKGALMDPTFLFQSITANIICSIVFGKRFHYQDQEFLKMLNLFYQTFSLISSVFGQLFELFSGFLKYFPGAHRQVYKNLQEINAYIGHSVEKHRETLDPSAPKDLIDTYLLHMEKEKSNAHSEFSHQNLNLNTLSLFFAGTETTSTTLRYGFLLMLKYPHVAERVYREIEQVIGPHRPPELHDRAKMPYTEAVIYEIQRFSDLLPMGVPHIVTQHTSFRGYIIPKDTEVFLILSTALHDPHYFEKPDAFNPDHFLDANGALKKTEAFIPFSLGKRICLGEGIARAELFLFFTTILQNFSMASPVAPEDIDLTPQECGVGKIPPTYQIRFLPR
Procedure: as §1

CYP2C8 = CYP2C8 (Homo sapiens, UniProt P10632); assay: as above; type: in vitro ADME; design: from tissue; host or cells: human liver microsomes; conditions: CYP2C8, 2.5 μM Paclitaxel
Sequence of CYP2C8 (P10632 whole entry): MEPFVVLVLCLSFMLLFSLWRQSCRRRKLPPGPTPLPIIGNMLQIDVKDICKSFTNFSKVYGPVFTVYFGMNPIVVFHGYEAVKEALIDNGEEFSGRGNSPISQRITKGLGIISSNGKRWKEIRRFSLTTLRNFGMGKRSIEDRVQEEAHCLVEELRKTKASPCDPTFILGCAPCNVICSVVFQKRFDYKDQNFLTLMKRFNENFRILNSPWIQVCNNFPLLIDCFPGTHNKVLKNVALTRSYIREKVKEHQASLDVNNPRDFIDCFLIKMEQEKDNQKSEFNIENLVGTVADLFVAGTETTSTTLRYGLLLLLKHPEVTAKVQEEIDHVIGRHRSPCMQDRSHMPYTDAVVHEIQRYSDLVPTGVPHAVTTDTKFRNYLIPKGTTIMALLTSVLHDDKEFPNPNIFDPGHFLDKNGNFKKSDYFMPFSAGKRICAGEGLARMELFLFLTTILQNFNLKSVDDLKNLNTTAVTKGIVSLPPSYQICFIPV
Procedure: as §1

[2] = biological target: T1, pregnane-X receptor (PXR) (Homo sapiens, UniProt O75469); assay: PXR activation in DPX2 cells; type: in vitro ADME
T1 construct: expressed in transfected cells; host or cells: DPX2 cells (human hepatoma cell line)
T1 sequence (O75469 whole entry): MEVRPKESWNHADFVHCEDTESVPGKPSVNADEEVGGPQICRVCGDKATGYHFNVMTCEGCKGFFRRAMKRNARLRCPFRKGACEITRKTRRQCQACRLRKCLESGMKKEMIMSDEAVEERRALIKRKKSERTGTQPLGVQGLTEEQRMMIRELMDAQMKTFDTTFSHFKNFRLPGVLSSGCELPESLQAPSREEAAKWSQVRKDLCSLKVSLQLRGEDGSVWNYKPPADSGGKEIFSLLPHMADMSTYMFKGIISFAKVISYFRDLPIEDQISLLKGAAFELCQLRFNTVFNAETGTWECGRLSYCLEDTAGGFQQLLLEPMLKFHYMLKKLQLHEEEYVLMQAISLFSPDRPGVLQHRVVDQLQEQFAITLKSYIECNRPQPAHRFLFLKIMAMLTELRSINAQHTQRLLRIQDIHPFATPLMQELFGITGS
Procedure: The potential of Compound 1 to activate the pregnane-X receptor (PXR) was evaluated over a range of six concentrations from 0.1-30 μM in DPX2 cells, a human hepatoma cell line that is stably overexpressed with the human PXR gene and a luciferase reporter gene linked to two promoters in the human CYP3A4 gene. Rifampicin was used as a positive control.

CYP1A2 [3] = assay: CYP1A2 Induction in Human Hepatocytes; type: in vitro ADME
Procedure: CYP activity was determined by monitoring metabolite formation of specific CYP probe substrates (phenacetin for CYP1A2 and testosterone for CYP3A4) using LC-MS/MS. CYP messenger ribonucleic acid (mRNA) was analyzed by RT-PCR to confirm CYP induction potential.

[4] = Oral pharmacokinetics / bioavailability; type: in vivo; conditions: single oral; for AUC / AUC(0-inf) / Cmax / MRT / Tmax / half-life: in vivo
Source text: The bioavailability in monkey (greater than 100%) may be explained by the tenfold difference between the IV and oral doses. Compound 1 was rapidly absorbed in all species, with maximum systemic concentration observed within approximately one to three hours of dosing.

[5] = tested on: MCP-1 stimulated pAkt in THP-1 cells (PI3K-gamma); assay: MCP-1 Stimulated pAkt in THP-1 Cells; type: cell-based; conditions: Homo sapiens
Procedure: Chemokines like MCP-1 bind to their receptors resulting in activation of the PI3K-gamma signaling pathway. PI3K-gamma leads to generation of PIP3 and activation of downstream molecules like PDK-1 and Akt. Akt phosphorylation is a measure of PI3K activity in the cell. In this assay, THP-1 cells (human monocytic cell line) are starved overnight to deplete pAkt levels. Subsequent stimulation with MCP-1 for 3 minutes leads to PI3K-gamma-induced phoshorylation of Akt at the Threonin 308 and Serine 473 sites. Cells were fixed and stained for intracellular phosphoAKT (Ser 473) then analyzed using a BD FACSCalibur™ cytometer resulting in a measure of cellular PI3K-gamma activity.

[6] = Intravenous bolus pharmacokinetics; type: in vivo, Rat; conditions: for AUC: rat, iv, 0.5 mg/kg
Source text: Following intravenous administration of a single bolus dose, Compound 1 had low systemic clearance and a long half-life in all species tested. […] The volume of distribution was greater than the total body water, indicating distribution of Compound 1 to tissues.

[7] = Dog, 3 mg/kg nominal, spray-dried dispersion
[8] = Monkey, 5 mg/kg nominal, spray-dried dispersion
[9] = Mouse, 1 mg/kg nominal, 0.2% MC/1% SLS
[10] = Rat, single IV bolus, 0.5 mg/kg nominal
[11] = plasma, Rat, single IV bolus, 0.5 mg/kg nominal

Question: Which results are given for `Cc1cc(-c2cncc([C@@H](O)C(F)(F)F)c2)nc2c1C(=O)N(c1cnn(CC(F)F)c1)C2(C)C` [Compound 1, (R)-6-(1-(2,2-difluoroethyl)-1H-pyrazol-4-yl)-4,7,7-trimethyl-2-(5-(2,2,2-trifluoro-1-hydroxyethyl)pyridin-3-yl)-6,7-dihydro-5H-pyrrolo[3,4-b]pyridin-5-one]?
Answer: IC50 (CYP1A2 [1]): 7 µM; IC50 (CYP2C9): 32 µM; IC50 (CYP2C19): 21 µM; IC50 (CYP2D6): 64 µM; IC50 (CYP2B6): 4 µM; IC50 (CYP2C8): 7 µM; PXR activation, response relative to positive control ([2]; 0.1-30 μM, Rifampicin positive control): 5%; EC50 ([2]; PXR activation): > 30 µM; CYP1A2 mRNA message (CYP1A2 [3]; 0.5 μM, lot 8123): 0.6 (0.6)* fold change; Phenacetin O-Dealkylation (CYP1A2 [3]; 0.5 μM, lot 8123): 0.6 (0.6)* fold change; CYP1A2 mRNA message (CYP1A2 [3]; 0.5 μM, lot LMP): 0.6 fold change; Phenacetin O-Dealkylation (CYP1A2 [3]; 0.5 μM, lot LMP): 0.7 fold change; CYP1A2 mRNA message (CYP1A2 [3]; 0.5 μM, lot YOW): 0.5 fold change; Phenacetin O-Dealkylation (CYP1A2 [3]; 0.5 μM, lot YOW): 1.1 fold change; CYP1A2 mRNA message (CYP1A2 [3]; 1.0 μM, lot 8123): 0.5 (0.5) fold change; Phenacetin O-Dealkylation (CYP1A2 [3]; 1.0 μM, lot 8123): 0.5 (0.5) fold change; CYP1A2 mRNA message (CYP1A2 [3]; 1.0 μM, lot LMP): 0.6 fold change; Phenacetin O-Dealkylation (CYP1A2 [3]; 1.0 μM, lot LMP): 0.8 fold change; CYP1A2 mRNA message (CYP1A2 [3]; 1.0 μM, lot YOW): 0.4 fold change; Phenacetin O-Dealkylation (CYP1A2 [3]; 1.0 μM, lot YOW): 1.1 fold change; CYP1A2 mRNA message (CYP1A2 [3]; 5.0 μM, lot 8123): 0.5 fold change; Phenacetin O-Dealkylation (CYP1A2 [3]; 5.0 μM, lot 8123): 0.8 fold change; CYP1A2 mRNA message (CYP1A2 [3]; 5.0 μM, lot LMP): 0.7 fold change; Phenacetin O-Dealkylation (CYP1A2 [3]; 5.0 μM, lot LMP): 0.9 fold change; CYP1A2 mRNA message (CYP1A2 [3]; 5.0 μM, lot YOW): 0.6 fold change; Phenacetin O-Dealkylation (CYP1A2 [3]; 5.0 μM, lot YOW): 1.1 fold change; CYP1A2 mRNA message (CYP1A2 [3]; 10.0 μM, lot 8123): 1.2 fold change; Phenacetin O-Dealkylation (CYP1A2 [3]; 10.0 μM, lot 8123): 0.7 fold change; CYP1A2 mRNA message (CYP1A2 [3]; 10.0 μM, lot LMP): 0.8 fold change; Phenacetin O-Dealkylation (CYP1A2 [3]; 10.0 μM, lot LMP): 1.0 fold change; CYP1A2 mRNA message (CYP1A2 [3]; 10.0 μM, lot YOW): 1.3 fold change; Phenacetin O-Dealkylation (CYP1A2 [3]; 10.0 μM, lot YOW): 1.2 fold change; CYP1A2 mRNA message (CYP1A2 [3]; 20.0 μM, lot 8123): 2.6 fold change; Phenacetin O-Dealkylation (CYP1A2 [3]; 20.0 μM, lot 8123): 1.2 fold change; CYP1A2 mRNA message (CYP1A2 [3]; 20.0 μM, lot LMP): 0.7 fold change; Phenacetin O-Dealkylation (CYP1A2 [3]; 20.0 μM, lot LMP): 1.1 fold change; CYP1A2 mRNA message (CYP1A2 [3]; 20.0 μM, lot YOW): 0.8 fold change; Phenacetin O-Dealkylation (CYP1A2 [3]; 20.0 μM, lot YOW): 1.3 fold change; Phenacetin O-Dealkylation (CYP1A2 [3]; 30.0 μM, lot 8123): 1.3 (NR^2) fold change; CYP1A2 mRNA message (CYP1A2 [3]; 30.0 μM, lot LMP): 1.4 fold change; Phenacetin O-Dealkylation (CYP1A2 [3]; 30.0 μM, lot LMP): 1.1 fold change; Phenacetin O-Dealkylation (CYP1A2 [3]; 30.0 μM, lot YOW): 1.5 (NR^2) fold change; change in CYP1A2 activity and mRNA levels, % of the positive control (CYP1A2 [3]; all three hepatocyte lots, 48 hour exposure): less than 20%; DN_AUCINF [4, 7]: 3100 ng·h/mL; F ([4]; Dog, 3 mg/kg nominal, spray-dried dispersion, 3 mg/kg): 77%; DN_AUCINF [4, 8]: 2500 ng·h/mL; DN_AUCINF [4, 9]: 2760 ng·h/mL; F ([4]; Mouse, 1 mg/kg nominal, 0.2% MC/1% SLS, 1 mg/kg): 81%; AUC [4, 7]: 9110 ng·h/mL; AUC(0-inf) [4, 7]: 9290 ng·h/mL; Cmax [4, 7]: 1290 ng/mL; MRT [4, 7]: 9 h; Tmax [4, 7]: 0.83 h; half-life [4, 7]: 7.3 h; AUC [4, 8]: 12300 ng·h/mL; AUC(0-inf) [4, 8]: 12500 ng·h/mL; Cmax [4, 8]: 1350 ng/mL; MRT [4, 8]: 10.5 h; Tmax [4, 8]: 1.67 h; half-life [4, 8]: 8.5 h; AUC [4, 9]: 2720 ng·h/mL; AUC(0-inf) [4, 9]: 2760 ng·h/mL; Cmax [4, 9]: 290 ng/mL; MRT [4, 9]: 5.8 h; Tmax [4, 9]: 2 h; half-life [4, 9]: 3.8 h; IC50 ([5]; THP-1, summary of cell assays, read-out: potency in PI3K-gamma associated cell assays): 0.25 µM; IC50 ([5]; THP-1/MCP-1/pAkt, PI3K-gamma dependent, read-out: IC50 Average ± Standard Deviation): 0.24 ± 0.07 µM; % HBF (hepatic blood flow) [6, 10]: ~3.6%; DN_AUCINF [6, 10]: 6200 ng·h/mL; AUC(0-inf) [6, 11]: 3100 ng·h/mL; half-life [6, 11]: 8.2 h; clearance ([6]; plasma, Rat, single IV bolus, 0.5 mg/kg nominal, read-out: CL): 2.8 mL/min/kg; Vd ([6]; plasma, Rat, single IV bolus, 0.5 mg/kg nominal, read-out: Vss): 1.8 L/kg; AUC ([6]; plasma, Intravenous bolus, 0.5 mg/kg nominal dose, read-out: Rat IV AUC): 3100 ng·h/mL; AUC ([6]; plasma, Rat, single IV bolus, 0.5 mg/kg nominal, read-out: AUCALL): 2690 ng·h/mL
